Test results published in patent publication US7989438B2, “Therapeutic compounds” (Istituto di Ricerche di Biologia Molecolare P. Angeletti SpA, priority 2007, dated 2011).
Read-outs that look alike come from different tables or passages of the source.

Test system: HCV subgenomic replication
Test: Cell based HCV replication assay (subgenomic replicon in Huh-7 cells, NS3 Cell-ELISA)
Settings: Table A, activity ranges, Huh-7 replicon cells, 96 hours, read-out: IC50 (nM), Inhibition of HCV subgenomic replication
Excerpt: Cell clones that stably maintain subgenomic HCV replicon were obtained by transfecting Huh-7 cells with an RNA replicon identical to I377neo/NS3-3′/wt described by Lohmann et al. (1999) (EMBL-genbank No. AJ242652), followed by selection with neomycin sulfate (G418). Viral replication was monitored by measuring the expression of the NS3 protein by an ELISA assay performed directly on cells grown in 96 wells microtiter plates (Cell-ELISA) using the anti-NS3 monoclonal antibody 10E5/24 (as described in published International application WO 02/59321). Cells were seeded into 96 well plates at a density of 10^4 cells per well in a final volume of 0.1 ml of DMEM/10% FCS. Two hours after plating, 50 μl of DMEM/10% FCS containing a 3× concentration of inhibitor were added, cells were incubated for 96 hours and then fixed for 10 minutes with ice-cold isopropanol. Each condition was tested in duplicate and average absorbance values were used for calculations. The cells were washed twice with PBS, blocked with 5% non-fat dry milk in PBS+0.1% Triton X100+0.02% SDS (PBSTS) and then incubated o/n at 4° C. with the 10E5/24 mab diluted in Milk/PBSTS. After washing 5 times with PBSTS, the cells were incubated for 3 hours at room temperature with Fc specific anti-mouse IgG conjugated to alkaline phosphatase (Sigma), diluted in Milk/PBSTS. After washing again as above, the reaction was developed with p-Nitrophenyl phosphate disodium substrate (Sigma) and the absorbance at 405/620 nm read at intervals. For calculations, we used data sets where samples incubated without inhibitors had absorbance values comprised between 1 and 1.5. The inhibitor concentration that reduced by 50% the expression of NS3 (IC50) was calculated by fitting the data to the Hill equation, Fraction inhibition=1−(Ai−b)/(A0−b)=[I]^n/([I]^n+[…]) where: • Ai=absorbance value of HBI10 cells supplemented with the indicated inhibitor concentration. • A0=absorbance value of HBI10 cells incubated without inhibitor. • b=absorbance value of Huh-7 cells plated at the same density in the same microtiter plates and incubated without inhibitor. • n=Hill coefficient.

SMILES | IC50 | IC50 (Hepatitis C virus)
CN1CCNCCN(C)S(=O)(=O)NC(=O)c2ccc3c(C4CCCCC4)c4n(c3c2)CC1COc1ccccc1-4 [Compound A1, (7R)-14-cyclohexyl-18,24-dimethyl-7,8-dihydro-6H-7,11-(epiminoethanoiminoethanoiminothioiminomethano)indolo[1,2-e][1,5]benzoxazocin-15-one 17,17-dioxide] | < 25 nM | 
CN1CCN(C)C2COc3ccccc3-c3c(C4CCCCC4)c4ccc(cc4n3C2)C(=O)NS(=O)(=O)N(C)CC1 [Compound A2, (7R)-14-cyclohexyl-18,21,24-trimethyl-7,8-dihydro-6H-7,11-(epiminoethanoiminoethanoiminothioiminomethano)indolo[1,2-e][1,5]benzoxazocin-15-one 17,17-dioxide] | < 25 nM | 
CCN1CCN(C)C2COc3ccccc3-c3c(C4CCCCC4)c4ccc(cc4n3C2)C(=O)NS(=O)(=O)N(C)CC1 [Compound A3, (7R)-14-cyclohexyl-21-ethyl-18,24-dimethyl-7,8-dihydro-6H-7,11-(epiminoethanoiminoethanoiminothioiminomethano)indolo[1,2-e][1,5]benzoxazocin-15-one 17,17-dioxide] | < 25 nM | 
CC(C)N1CCN(C)C2COc3ccccc3-c3c(C4CCCCC4)c4ccc(cc4n3C2)C(=O)NS(=O)(=O)N(C)CC1 [Compound A4, (7R)-14-cyclohexyl-21-isopropyl-18,24-dimethyl-7,8-dihydro-6H-7,11-(epiminoethanoiminoethanoiminothioiminomethano)indolo[1,2-e][1,5]benzoxazocin-15-one 17,17-dioxide] | < 25 nM | 
CN1CCN(C)[C@H]2COc3ccccc3-c3c(C4CCCCC4)c4ccc(cc4n3C2)C(=O)NS(=O)(=O)N(CC2CC2)CC1 [Compound A5, (7R)-14-cyclohexyl-18-(cyclopropylmethyl)-21,24-dimethyl-7,8-dihydro-6H-7,11-(epiminoethanoiminoethanoiminothioiminomethano)indolo[1,2-e][1,5]benzoxazocin-15-one 17,17-dioxide] | < 25 nM | 
CN1CCN2CCN(CC2)S(=O)(=O)NC(=O)c2ccc3c(C4CCCCC4)c4n(c3c2)C[C@@H]1COc1ccccc1-4 [Compound A6, (20R)-30-cyclohexyl-21-methyl-18-oxa-2-thia-1,3,10,21,24-pentaazahexacyclo[22.2.2.1^5,9.1^8,11.1^10,20.0^12,17]hentriaconta-5(31),6,8,11(30),12,14,16-heptaen-4-one 2,2-dioxide] |  | 25 to 150 nM
CN1CCOC2COc3ccccc3-c3c(C4CCCCC4)c4ccc(cc4n3C2)C(=O)NS(=O)(=O)N(C)CC1 [Compound A7, (7S)-14-cyclohexyl-18,21-dimethyl-7,8-dihydro-6H-7,11-(epoxyethanoiminoethanoiminothioiminomethano)indolo[1,2-e][1,5]benzoxazocin-15-one 17,17-dioxide] | 25 to 150 nM | 
CN1CCN(C)C2COc3cc(OCc4ccccn4)ccc3-c3c(C4CCCCC4)c4ccc(cc4n3C2)C(=O)NS(=O)(=O)N(C)CC1 [Compound A8, (7R)-14-cyclohexyl-18,21,24-trimethyl-3-(pyridin-2-ylmethoxy)-7,8-dihydro-6H-7,11-(epiminoethanoiminoethanoiminothioiminomethano)indolo[1,2-e][1,5]benzoxazocin-15-one 17,17-dioxide] | < 25 nM | 
CN1CCN(C)CC2Cn3c(c(C4CCCCC4)c4ccc(cc43)C(=O)NS(=O)(=O)N(C)CC1)-c1ccccc1N2C (stereo not drawn) [Compound A9, 13-cyclohexyl-5,17,20,23-tetramethyl-6,7-dihydro-5H-10,6-(methanoiminothioiminoethanoiminoethanoiminomethano)indolo[1,2-d][1,4]benzodiazepin-14-one 16,16-dioxide] | 25 to 150 nM | 
COc1ccc2c(c1)CC1CCN(C)CCN(C)S(=O)(=O)NC(=O)c3ccc4c(C5CCCCC5)c-2n(c4c3)C1 (stereo not drawn) [Compound A10, 13-cyclohexyl-3-methoxy-17,20-dimethyl-6,7-dihydro-5H-6,10-(ethanoiminoethanoiminothioiminomethano)indolo[2,1-a][2]benzazepin-14-one 16,16-dioxide] | 25 to 150 nM | 
CN1CCN(C)C2COc3cc(F)ccc3-c3c(C4CCCCC4)c4ccc(cc4n3C2)C(=O)NS(=O)(=O)N(C)CC1 [Compound A11, (7R)-14-cyclohexyl-3-fluoro-18,21,24-trimethyl-7,8-dihydro-6H-7,11-(epiminoethanoiminoethanoiminothioiminomethano)indolo[1,2-e][1,5]benzoxazocin-15-one 17,17-dioxide] | < 25 nM | 
CCN1CCN(CCN(C)C)C2COc3cc(F)ccc3-c3c(C4CCCCC4)c4ccc(cc4n3C2)C(=O)NS(=O)(=O)N(C)CC1 [Compound A12, (7R)-14-cyclohexyl-24-[2-(dimethylamino)ethyl]-21-ethyl-3-fluoro-18-methyl-7,8-dihydro-6H-7,11-(epiminoethanoiminoethanoiminothioiminomethano)-indolo[1,2-e][1,5]benzoxazocin-15-one 17,17-dioxide] | < 25 nM | 
CN1CCNCCN(C)S(=O)(=O)NC(=O)c2ccc3c(C4CCCCC4)c4n(c3c2)CC1COc1ccccc1-4 [Compound A15, (7S)-14-cyclohexyl-18,24-dimethyl-7,8-dihydro-6H-7,11-(epiminoethanoiminoethanoiminothioiminomethano)indolo[1,2-e][1,5]benzoxazocin-15-one 17,17-dioxide] | 150 to 500 nM | 
CN1CCN2CCCC2CO[C@@H]2COc3ccccc3-c3c(C4CCCCC4)c4ccc(cc4n3C2)C(=O)NS1(=O)=O (stereo partly drawn) [Compound A17, (20S)-31-cyclohexyl-10-methyl-19,22-dioxa-9-thia-1,8,10,13-tetraazahexacyclo[18.9.1.1^2,6.1^3,29.0^13,17.0^23,28]dotriaconta-2(32),3,5,23,25,27,29(31)-heptaen-7-one 9,9-dioxide] |  | 25 to 150 nM
CN1CCN2CCC(C2)N(C)S(=O)(=O)NC(=O)c2ccc3c(C4CCCCC4)c4n(c3c2)C[C@@H]1COc1ccccc1-4 [Compound A18, (18R)-29-cyclohexyl-10,17-dimethyl-20-oxa-9-thia-1,8,10,14,17-pentaazahexacyclo[16.9.1.1^2,6.1^3,27.1^11,14.0^21,26]hentriaconta-2(31),3,5,21,23,25,27(29)-heptaen-7-one 9,9-dioxide] |  | < 25 nM
CCN1CCN(C)[C@H]2COc3c(C)cccc3-c3c(C4CCCCC4)c4ccc(cc4n3C2)C(=O)NS(=O)(=O)N(C)CC1 [Compound A19, (7R)-14-cyclohexyl-21-ethyl-4,18,24-trimethyl-7,8-dihydro-6H-7,11-(epiminoethanoiminoethanoiminothioiminomethano)indolo[1,2-e][1,5]benzoxazocin-15-one 17,17-dioxide] | < 25 nM | 
CN1CCOCCN(C)S(=O)(=O)NC(=O)c2ccc3c(C4CCCCC4)c4n(c3c2)C[C@@H]1COc1ccccc1-4 [Compound A20, (7R)-14-cyclohexyl-18,24-dimethyl-7,8-dihydro-6H-7,11-(epiminoethanooxyethanoiminothioiminomethano)indolo[1,2-e][1,5]benzoxazocin-15-one 17,17-dioxide] | 25 to 150 nM | 
CN1[C@H]2CCN(CCN(C)S(=O)(=O)NC(=O)c3ccc4c(C5CCCCC5)c5n(c4c3)C[C@@H]1COc1ccccc1-5)C2 [Compound A21, (16S,18R)-29-cyclohexyl-10,17-dimethyl-20-oxa-9-thia-1,8,10,13,17-pentaazahexacyclo[16.9.1.1^2,6.1^3,27.1^13,16.0^21,26]hentriaconta-2(31),3,5,21,23,25,27(29)-heptaen-7-one 9,9-dioxide] |  | < 25 nM
CCCc1cccc2c1OC[C@H]1Cn3c-2c(C2CCCCC2)c2ccc(cc23)C(=O)NS(=O)(=O)N(C)CCN(CC)CCN1C [Compound A22, (7R)-14-cyclohexyl-21-ethyl-18,24-dimethyl-4-propyl-7,8-dihydro-6H-7,11-(epiminoethanoiminoethanoiminothioiminomethano)indolo[1,2-e][1,5]benzoxazocin-15-one 17,17-dioxide] | 25 to 150 nM | 
O=C1NS(=O)(=O)N2CCN(CCN3CC4(COc5ccccc5-c5c(C6CCCCC6)c6ccc1cc6n5C4)C3)CC2 [Compound A23, 31-cyclohexyl-8-oxa-24-thia-1,4,16,23,25-pentaazaheptacyclo[23.2.2.1^4,6.1^6,16.1^15,18.1^17,21.0^9,14]tritriaconta-9,11,13,15(31),17(30),18,20-heptaen-22-one 24,24-dioxide] |  | 25 to 150 nM
CN1CCN(C)C2COc3ccccc3-c3c(C4CCCCC4)c4ccc(cc4n3C2)C(=O)NS(=O)(=O)N(C)C(C)(C)C1 [Compound A24, (7R)-14-cyclohexyl-18,19,19,21,24-pentamethyl-7,8-dihydro-6H-7,11-(epiminoethanoiminoethanoiminothioiminomethano)indolo[1,2-e][1,5]benzoxazocin-15-one 17,17-dioxide] | 25 to 150 nM | 
